These results are taken from US8304371B2, “Insecticidal arylpyrrolines” (Bayer Cropscience AG, priority 2008, dated 2012).

Read-outs that look alike come from different tables or passages of the source.

Assay type in all cases: in vivo
Data set [1] relates to Cat Fleas (Ctenocephalides fells). The experiment in a line: Test against cat fleas, blood feeding. Conditions: for mortality at 100 ppm: Ctenocephalides, 48 h, read-out: mortality rate. How it is done:
(§1) Solvent: Dimethylsulfoxide
About 10 to 15 adult cat fleas are provided in a container exclusive for fleas. An exclusive container containing the test solution is covered with Parafilm, reversed upside down, and then mounted on top of the flea container, so that the cat fleas can suck the blood in the container. The test solution is maintained at 37° C., and the flea container is maintained at room temperature. After 2 days the mortality rate of the cat fleas is measured. 100% means that all of the cat fleas have been killed, while 0% means that all are alive.

Data set [2] relates to Housefly (Musca domestica). The experiment in a line: Test against housefly. The settings on record: for mortality at 100 ppm: Musca domestica, 48 h, read-out: mortality rate. How it is done: as §1
(§2) In order to make a suitable test solution, 10 mg of an active compound is dissolved in 0.5 ml of the solvent, and the mixture is diluted with water to a predetermined concentration.
In a preliminary stage of the test, a piece of sponge having a certain size is soaked with a mixture of sugar and the test solution is placed in a test container. Ten adult houseflies are introduced to the container, and the container is covered with a perforated lid.
After 2 days, the mortality rate of the houseflies is measured. At that time, 100% means that all of the houseflies have been killed, and 0% means that all are alive.

Data set [3] has as its system Nymphs of the tick Amblyomma hebraeum. The experiment in a line: Amblyomma hebraeum test, nymph immersion. The settings on record: 48 h, read-out: activity (mortality in %). How it is done:
as §1
To produce a suitable preparation of active compound. 1 part by weight of active compound is mixed with the stated amount of solvent, and the concentrate is diluted with containing solvent to the desired concentration.
Nymphs of the tick Amblyomma hebraeum are placed in perforated plastic beakers and immersed in aqueous compound solution for one minute. Ticks are transferred to a filter paper in a Petri dish and incubated in a climate chamber for 42 days.
After 2 days mortality in % is determined. 100% means that all the ticks have been killed; 0% means that none of the ticks have been killed.

In data set [4] the test system is adult engorged female Boophilus microplus ticks. The experiment in a line: Boophilus microplus test, immersion of engorged females. Conditions: Rhipicephalus microplus, 168 h, read-out: activity (mortality in %). How it is done:
Solvent: Dimethylsulfoxid
To produce a suitable preparation of active compound, 10 mg of active compound are dissolved in 0.5 ml solvent, and the concentrate is diluted with water to the desired concentration.
Eight to ten adult engorged female Boophilus microplus ticks are placed in perforated plastic beakers and immersed in aqueous compound solution for one minute. Ticks are transferred to a filter paper in a plastic tray. Egg deposition of fertile eggs is monitored after.
After 7 days mortality in % is determined. 100% means that all the ticks have been killed; 0% means that none of the ticks have been killed.

Data set [5] deals with Tobacco Cutworm (Spodoptera litura) Larvae. Kind of data set: Test against tobacco cutworm (Spodoptera litura) larvae, leaf dip. The settings on record: active compound concentration 100 ppm; third-instar larvae; after 7 days. How it is done: (§3) Unless nomentioned otherwise, the test solutions were prepared as follows:
(§4) Containing as solvent: Dimethylformamide, 3 parts by weight; and as emulsifier: Polyoxyethylene alkyl phenyl ether, 1 part by weight
(§5) To prepare the test solution, 1 part by weight of an active compound is mixed with the above-mentioned amount of solvent containing the above-mentioned amount of emulsifier, and the mixture is diluted with water to the desired concentration.
The leaves of sweet potato were immersed in the test solution at the appropriate concentration, and the leaves were dried in air. The leaves were then placed in a petri dish having a diameter of 9 cm, and ten third-instar larvae of tobacco cutworm were released therein. The petri dish was placed in a temperature chamber at 25° C. After 2 days and 4 days sweet potato leaves were additionally added. After 7 days, the number of dead larvae was counted, to calculate the insecticidal activity. An insecticidal activity of 100% means that all larvae were killed, whereas an insecticidal activity of 0% means that no larva was killed. In the current test, the results of two petri dishes for each partition were averaged.

For data set [6], the system named is Two-Spotted Spider Mite (Tetranvchus urticae). The experiment in a line: Test against two-spotted spider mite, spray on kidney bean. The settings on record: active compound concentration 100 ppm; adult mites; after 7 days. How it is done: as §3, §4, §5
50 to 100 adult two-spotted spider mites were inoculated onto the leaves of kidney beans at the two-true leaf stage, which plant had been cultivated in a pot having a diameter of 6 cm. After one day, test solution at the appropriate concentration was sprayed thereon in a sufficient amount using a spray gun. After the spraying, the plant pot was placed inside a greenhouse, and after 7 days, the acaricidal activity was calculated. An acaricidal activity of 100% means that all mites were killed, whereas an acaricidal activity of 0% means that no mite was killed.

In data set [7] the test system is Cucurbit Leaf Beetle (Aulacophora femoralis). Kind of data set: Test against cucurbit leaf beetle, cucumber leaf dip. The settings on record: active compound concentration 100 ppm; second-instar larvae; after 7 days. How it is done: as §3, §4, §5
Cucumber leaves were immersed in the test solution at the appropriate concentration, and the leaves were dried in air. The leaves were then placed in a plastic cup containing aseptically sterilized black soil, and five second-instar larvae of cucurbit leaf beetle were released therein. After 7 days, the number of dead larvae was counted, and thus the insecticidal activity was calculated. An insecticidal activity of 100% means that all beetles were killed, whereas an insecticidal activity of 0% means that no beetle was killed.

For data set [8], the system named is Strain of Green Peach Aphid (Mvzus persicas) which is Resistant to Organic Phosphorus and Carbamate Agents. The experiment in a line: Test against resistant green peach aphid, spray on egg plant. Conditions: active compound concentration 500 ppm; after 7 days. How it is done: as §3, §4, §5
About 30 to 50 of the resistant green peach aphids were inoculated per seedling, onto the leaves of egg plant at the two-true leaf stage, which plant had been cultivated in a pot having a diameter of 6 cm. One day after the inoculation, the test solution at the appropriate concentration was sprayed thereon in a sufficient amount using a spray gun. After the spraying, the plant pot was placed in a greenhouse at 28° C., and after 7 days, the insecticidal activity was calculated. An insecticidal activity of 100% means that all aphids were killed, whereas an insecticidal activity of […] means that no aphid was killed. The test was repeated two times.

The subject of data set [9] is Sheep Blowfly (Lucillia cuprina). Kind of data set: Test against sheep blowfly. The settings on record: active compound concentration 100 ppm; after 2 days. How it is done:
as §1, §2
Minced horse meat having a size of 1 square centimeter, and 0.5 ml of the test solution are placed in a test tube, and about 20 to 30 adult sheep blowflies are introduced therein.
After 2 days the mortality rate of the sheep blowflies is measured. 100% means that all of the sheep blowflies have been killed, and 0% means that all are alive.

Data set [10] relates to Cattle Tick (Boophilus microplus). Kind of data set: Test against cattle tick, injection. Conditions: 20 μg/animal injected; after 7 days; 100% means that all eggs are infertile. How it is done: as §1
In order to make a suitable test solution, 10 mg of an active compound is dissolved in 0.5 ml of the above mentioned solvent, and the mixture is diluted with water to a predetermined concentration.
The test solution is injected into the abdomens of five fully-fed female adult cattle ticks. The cattle ticks are transferred to a replica plate, and are bred in a breeding vessel for a certain time period. Egg deposition of fertile eggs is monitored.
After 7 days the mortality rate of the cattle ticks is measured. 100% means that all eggs are infertile; and 0% means that all eggs are fertile.

Setting [11] is: active compound concentration 100 ppm in blood, adult fleas, after 2 days.
[12] abbreviates: application rate 100 ppm, immersed one minute, after 2 days.
[13] abbreviates: application rate 100 ppm, immersed one minute, after 7 days.

In general, mortality refers to the share of the test organisms that died. For `CS/C(=N\C[Si](C)(C)C)c1ccc(COC(C)=O)c2ccccc12` [15-2, {4-[(Z)-(methylsulfanyl){[(trimethylsilyl)methyl]imino}methyl]naphthalen-1-yl}methyl acetate], the mortality at 100 ppm in data set [1], in data set [2], in data set [3] and in data set [4] was not below 80% throughout.

As to `N#Cc1cc(C2=NCC(c3cc(Cl)cc(Cl)c3)(C(F)(F)F)C2)ccc1-n1cncn1` (stereo not drawn) [Compound No. 1-39, 5-[3-(3,5-dichlorophenyl)-3-(trifluoromethyl)-3,4-dihydro-2H-pyrrol-5-yl]-2-(1H-1,2,4-triazol-1-yl)benzonitrile], the insecticidal activity in data set [5] was 100%; in [7] it was 100%; in data set [8], 98%. In data set [6], this compound had an acaricidal activity of 98%. The mortality at 100 ppm was 100% in data set [1] (setting [11]), 100% in [2], not below 80% in data set [3] (setting [12]) and not below 80% in [4] (setting [13]). In data set [9], the mortality rate is given as 100%.

Regarding `CC(=O)NCc1ccc(C2=NCC(c3cc(Cl)cc(Cl)c3)(C(F)(F)F)C2)cc1Br` (stereo not drawn) [2-13, N-{2-bromo-4-[3-(3,5-dichlorophenyl)-3-(trifluoromethyl)-3,4-dihydro-2H-pyrrol-5-yl]benzyl}acetamide], the insecticidal activity in data set [5] is listed as 100%. In addition, the mortality at 100 ppm in [1] (setting [11]), in data set [2] and in data set [4] (setting [13]) was not below 80% each time.

As for `FC(F)(F)C1(c2cc(Cl)cc(Cl)c2)CN=C(c2ccc(-n3cncn3)c(Br)c2)C1` (stereo not drawn) [1-21], the insecticidal activity in data set [5], in data set [7] and in data set [8] was 100% throughout. For the same compound, the acaricidal activity in [6] is given as 100%. Besides, the mortality rate result is “at least 90%” in data set [1] (setting [11]); 100% in data set [10]; 100% in data set [9]; 100% in [2] (active compound concentration 100 ppm, adult houseflies, after 2 days).

For the compound `CCC(=O)NCc1ccc(C2=NCC(c3cc(Cl)c(Cl)c(Cl)c3)(C(F)(F)F)C2)c2ccccc12` (stereo not drawn) [11-6], the insecticidal activity in data set [5], in data set [7] and in [8] was 100% in each case. The acaricidal activity in [6] came to 100%.

`CC(=O)NCc1ccc(C2=NCC(c3cc(Cl)c(Cl)c(Cl)c3)(C(F)(F)F)C2)cc1C(F)(F)F` (stereo not drawn) [2-161]: the insecticidal activity in data set [5], in data set [7] and in data set [8] was 100% throughout. In addition, the acaricidal activity in data set [6] came to 100%.

Take `O=C(CC(F)(F)F)NCc1ccc(C2=NCC(c3cc(Cl)c(Cl)c(C(F)(F)F)c3)(C(F)(F)F)C2)cc1Br` (stereo not drawn) [2-173]: the insecticidal activity in data set [5], in [7] and in data set [8] was 100% in each case. For the same compound, the acaricidal activity in data set [6] turned out to be 100%.

Take `O=C(CC(F)(F)F)NCc1ccc(C2=NCC(c3cc(C(F)(F)F)cc(C(F)(F)F)c3)(C(F)(F)F)C2)cc1C(F)(F)F` (stereo not drawn) [2-168]: the insecticidal activity in data set [5], in data set [7] and in data set [8] was 100% each time. Further, in data set [6], the acaricidal activity is listed as 100%.

Turning to `N#Cc1cc(C2=NCC(c3cc(C(F)(F)F)cc(C(F)(F)F)c3)(C(F)(F)F)C2)ccc1-n1cncn1` (stereo not drawn) [1-72], the insecticidal activity in [5], in data set [7] and in data set [8] was 100% each time. In data set [6], the acaricidal activity came out at 100%.

Turning to `N#Cc1cc(C2=NCC(c3cc(Cl)c(Cl)c(Cl)c3)(C(F)(F)F)C2)ccc1-n1cncn1` (stereo not drawn) [1-78, 2-(1H-1,2,4-triazol-1-yl)-5-[3-(3,4,5-trichlorophenyl)-3-(trifluoromethyl)-3,4-dihydro-2H-pyrrol-5-yl]-benzonitrile], the insecticidal activity in data set [5], in [7] and in [8] was 100% throughout. Moreover, the acaricidal activity in data set [6] is reported as 100%. The mortality at 100 ppm in data set [1] (setting [11]), in data set [2], in data set [3] (setting [12]) and in [4] (setting [13]) was not below 80% throughout.

In the case of `O=C(CC(F)(F)F)NCc1ccc(C2=NCC(c3cc(Cl)c(Cl)c(Cl)c3)(C(F)(F)F)C2)cc1Br` (stereo not drawn) [2-171], the insecticidal activity in [5], in data set [7] and in data set [8] was 100% throughout. This compound also yielded an acaricidal activity in data set [6] of 100%.
